Patent publication US20260028365A1 (BIOGEN MA INC., priority 2022, published 2026)

Legend:
JH2 domain of human Tyk2 = JH2 domain of human Tyk2 (Homo sapiens (Human), UniProt P29597); assay: JH2 Biochemical Assay (TR-FRET probe displacement); type: binding; conditions: JH2 domain of human Tyk2, TR-FRET probe displacement
Tyk2 = Tyk2 (Homo sapiens (Human), UniProt P29597); assay: pSTAT4 Cell Assay (MSD, NK92 cells); type: cell-based; conditions: MSD
Tyk2, sequence (P29597 whole entry): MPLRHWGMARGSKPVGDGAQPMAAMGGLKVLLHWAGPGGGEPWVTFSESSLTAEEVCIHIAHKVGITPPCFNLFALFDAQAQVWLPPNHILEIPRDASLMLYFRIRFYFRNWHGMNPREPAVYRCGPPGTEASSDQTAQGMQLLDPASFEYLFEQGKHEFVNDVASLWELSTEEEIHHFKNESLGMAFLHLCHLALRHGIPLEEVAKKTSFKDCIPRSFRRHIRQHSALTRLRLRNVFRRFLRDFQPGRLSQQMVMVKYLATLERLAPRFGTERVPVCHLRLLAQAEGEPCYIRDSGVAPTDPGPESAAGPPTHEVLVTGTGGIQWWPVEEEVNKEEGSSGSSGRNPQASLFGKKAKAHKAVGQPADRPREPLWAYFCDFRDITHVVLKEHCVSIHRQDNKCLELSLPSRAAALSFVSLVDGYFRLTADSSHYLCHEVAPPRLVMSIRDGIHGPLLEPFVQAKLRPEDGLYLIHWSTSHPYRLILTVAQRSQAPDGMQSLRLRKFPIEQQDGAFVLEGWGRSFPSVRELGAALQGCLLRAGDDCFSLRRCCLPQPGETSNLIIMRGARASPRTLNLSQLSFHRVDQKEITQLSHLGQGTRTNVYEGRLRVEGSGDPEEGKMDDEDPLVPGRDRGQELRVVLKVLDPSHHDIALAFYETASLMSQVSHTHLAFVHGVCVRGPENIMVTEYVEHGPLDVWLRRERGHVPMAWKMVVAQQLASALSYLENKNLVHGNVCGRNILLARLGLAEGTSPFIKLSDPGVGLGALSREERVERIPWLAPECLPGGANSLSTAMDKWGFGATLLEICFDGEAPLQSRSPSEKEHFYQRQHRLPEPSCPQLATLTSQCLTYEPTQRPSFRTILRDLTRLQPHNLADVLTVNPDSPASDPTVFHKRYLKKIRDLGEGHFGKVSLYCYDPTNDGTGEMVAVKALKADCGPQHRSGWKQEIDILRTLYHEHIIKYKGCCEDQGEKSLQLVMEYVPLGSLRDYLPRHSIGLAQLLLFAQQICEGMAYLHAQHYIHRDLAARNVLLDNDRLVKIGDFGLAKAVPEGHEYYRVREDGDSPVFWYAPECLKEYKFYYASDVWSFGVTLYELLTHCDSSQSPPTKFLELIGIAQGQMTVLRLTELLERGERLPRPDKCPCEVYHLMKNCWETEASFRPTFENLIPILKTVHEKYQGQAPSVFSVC

JH2 domain of human Tyk2, sequence (P29597 575-876): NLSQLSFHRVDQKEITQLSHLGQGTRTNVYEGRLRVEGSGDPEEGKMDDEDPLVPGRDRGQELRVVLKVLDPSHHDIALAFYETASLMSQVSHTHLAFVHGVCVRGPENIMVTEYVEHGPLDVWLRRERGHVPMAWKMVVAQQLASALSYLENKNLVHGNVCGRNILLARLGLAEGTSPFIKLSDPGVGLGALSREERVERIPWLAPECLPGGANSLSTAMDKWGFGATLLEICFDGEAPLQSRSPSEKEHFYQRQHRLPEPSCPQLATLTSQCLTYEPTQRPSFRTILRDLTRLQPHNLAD

SMILES	IC50 (JH2 domain of human Tyk2)	IC50 (Tyk2)
CC(=O)Nc1cc(Nc2cc(C)nc(C(C)(F)F)n2)c(-c2ncc(C(F)F)cn2)cn1 [Example 670, N-(4-((2-(1,1-difluoroethyl)-6-methylpyrimidin-4-yl)amino)-5-(5-(difluoromethyl)pyrimidin-2-yl)pyridin-2-yl)acetamide]	≤ 10 nM	10 to 100 nM
CC(=O)Nc1cc(Nc2cc(C)nc(C(C)(F)F)n2)c(-c2nccc(C)n2)cn1 [Example 671, N-(4-((2-(1,1-difluoroethyl)-6-methylpyrimidin-4-yl)amino)-5-(4-methylpyrimidin-2-yl)pyridin-2-yl)acetamide]	≤ 10 nM	10 to 100 nM
COCc1cnc(-c2cnc(NC(C)=O)cc2Nc2cc(C)nc(C(C)(F)F)n2)nc1 [Example 672, N-(4-((2-(1,1-difluoroethyl)-6-methylpyrimidin-4-yl)amino)-5-(5-(methoxymethyl)pyrimidin-2-yl)pyridin-2-yl)acetamide]	≤ 10 nM	≤ 10 nM
CC(=O)Nc1cc(Nc2cc(C)nc(C(C)(F)F)n2)c(-c2ncc(F)c(C)n2)cn1 [Example 673, N-(4-((2-(1,1-difluoroethyl)-6-methylpyrimidin-4-yl)amino)-5-(5-fluorO4-methylpyrimidin-2-yl)pyridin-2-yl)acetamide]	10 to 100 nM	10 to 100 nM
CC(=O)Nc1cc(Nc2cc(C)nc(C(C)(F)F)n2)c(-c2cncc(CN(C)C)n2)cn1 [Example 675, N-(4-((2-(1,1-difluoroethyl)-6-methylpyrimidin-4-yl)amino)-5-(6-((dimethylamino)methyl)pyrazin-2-yl)pyridin-2-yl)acetamide]	≤ 10 nM	100 to 1000 nM
CC(=O)Nc1cc(Nc2cc(C)nc(C(C)(F)F)n2)c(-c2ccc3c(n2)CCC3=O)cn1 [Example 677, N-(4-((2-(1,1-difluoroethyl)-6-methylpyrimidin-4-yl)amino)-5-(5-oxO6,7-dihydrO5H-cyclopenta[b]pyridin-2-yl)pyridin-2-yl)acetamide]	≤ 10 nM	≤ 10 nM
CC(=O)Nc1cc(Nc2cc(C)nc(C(C)(F)F)n2)c(-c2ccc3nccn3n2)cn1 [Example 680, N-(4-((2-(1,1-difluoroethyl)-6-methylpyrimidin-4-yl)amino)-5-(imidazo[1,2-b]pyridazin-6-yl)pyridin-2-yl)acetamide]	≤ 10 nM	10 to 100 nM
CC(=O)Nc1cc(Nc2ccnc(C(C)(F)F)n2)c(-c2ncccn2)cn1 [Example 685, N-(4-((2-(1,1-difluoroethyl)pyrimidin-4-yl)amino)-5-(pyrimidin-2-yl)pyridin-2-yl)acetamide]	≤ 10 nM	10 to 100 nM
COc1ncc(-c2cnc(NC(C)=O)cc2Nc2ccnc(C(C)(F)F)n2)nc1OC [Example 686, N-(4-((2-(1,1-difluoroethyl)pyrimidin-4-yl)amino)-5-(5,6-dimethoxypyrazin-2-yl)pyridin-2-yl)acetamide]	10 to 100 nM	≥ 1000 nM
COc1cc(-c2cnc(NC(C)=O)cc2Nc2ccnc(C(C)(F)F)n2)nc(OC)n1 [Example 687, N-(4-((2-(1,1-difluoroethyl)pyrimidin-4-yl)amino)-5-(2,6-dimethoxypyrimidin-4-yl)pyridin-2-yl)acetamide]	≤ 10 nM	10 to 100 nM
CC(=O)Nc1cc(Nc2ccnc(C(C)(F)F)n2)c(-c2cncc(CC#N)n2)cn1 [Example 688, N-(5-(6-(cyanomethyl)pyrazin-2-yl)-4-((2-(1,1-difluoroethyl)pyrimidin-4-yl)amino)pyridin-2-yl)acetamide]	≤ 10 nM	100 to 1000 nM
CC(=O)Nc1cc(Nc2ccnc(C(C)(F)F)n2)c(-c2cncc(OC(F)F)n2)cn1 [Example 689, N-(4-((2-(1,1-difluoroethyl)pyrimidin-4-yl)amino)-5-(6-(difluoromethoxy)pyrazin-2-yl)pyridin-2-yl)acetamide]	10 to 100 nM	≥ 1000 nM
CC(=O)Nc1cc(Nc2ccnc(C(C)(F)F)n2)c(-c2cncc(OC3COC3)n2)cn1 [Example 690, N-(4-((2-(1,1-difluoroethyl)pyrimidin-4-yl)amino)-5-(6-(oxetan-3-yloxy)pyrazin-2-yl)pyridin-2-yl)acetamide]	10 to 100 nM	10 to 100 nM
COCCOc1cncc(-c2cnc(NC(C)=O)cc2Nc2ccnc(C(C)(F)F)n2)n1 [Example 691, N-(4-((2-(1,1-difluoroethyl)pyrimidin-4-yl)amino)-5-(6-(2-methoxyethoxy)pyrazin-2-yl)pyridin-2-yl)acetamide]	10 to 100 nM	100 to 1000 nM
CC(=O)Nc1cc(Nc2ccnc(C(C)(F)F)n2)c(-c2cnc(COC(F)F)cn2)cn1 [Example 692, N-(4-((2-(1,1-difluoroethyl)pyrimidin-4-yl)amino)-5-(5-((difluoromethoxy)methyl)pyrazin-2-yl)pyridin-2-yl)acetamide]	≤ 10 nM	100 to 1000 nM
CC(=O)Nc1cc(Nc2ccnc(C(C)(F)F)n2)c(-c2cnc(C3CC3)cn2)cn1 [Example 694, N-(5-(5-cyclopropylpyrazin-2-yl)-4-((2-(1,1-difluoroethyl)pyrimidin-4-yl)amino)pyridin-2-yl)acetamide]	≤ 10 nM	10 to 100 nM

SMILES	IC50 (JH2 domain of human Tyk2)	IC50 (Tyk2)
CC(=O)Nc1cc(Nc2ccnc(C(C)(F)F)n2)c(-c2cnc(C(C)(F)F)cn2)cn1 [Example 695, N-(5-(5-(1,1-difluoroethyl)pyrazin-2-yl)-4-((2-(1,1-difluoroethyl)pyrimidin-4-yl)amino)pyridin-2-yl)acetamide]	≤ 10 nM	100 to 1000 nM
COCc1nccc(-c2cnc(NC(C)=O)cc2Nc2ccnc(C(C)(F)F)n2)n1 [Example 696, N-(4-((2-(1,1-difluoroethyl)pyrimidin-4-yl)amino)-5-(2-(methoxymethyl)pyrimidin-4-yl)pyridin-2-yl)acetamide]	≤ 10 nM	≤ 10 nM
CC(=O)Nc1cc(Nc2ccnc(C(C)(F)F)n2)c(-c2ncc(Cl)cn2)cn1 [Example 697, N-(5-(5-chloropyrimidin-2-yl)-4-((2-(1,1-difluoroethyl)pyrimidin-4-yl)amino)pyridin-2-yl)acetamide]	≤ 10 nM	10 to 100 nM
CC(=O)Nc1cc(Nc2ccnc(C(C)(F)F)n2)c(-c2ncccc2F)cn1 [Example 698, N-(4′-((2-(1,1-difluoroethyl)pyrimidin-4-yl)amino)-3-fluorO[2,3′-bipyridin]-6′-yl)acetamide]	10 to 100 nM	100 to 1000 nM
COc1cc(-c2cnc(NC(C)=O)cc2Nc2ccnc(C(C)(F)F)n2)ncc1F [Example 699, N-(4′-((2-(1,1-difluoroethyl)pyrimidin-4-yl)amino)-5-fluorO4-methoxy-[2,3′-bipyridin]-6′-yl)acetamide]	10 to 100 nM	≥ 1000 nM
CC(=O)Nc1cc(Nc2ccnc(C(C)(F)F)n2)c(-c2cc(C)ccn2)cn1 [Example 700, N-(4′-((2-(1,1-difluoroethyl)pyrimidin-4-yl)amino)-4-methyl-[2,3′-bipyridin]-6′-yl)acetamide]	≤ 10 nM	10 to 100 nM
CC(=O)Nc1cc(Nc2ccnc(C(C)(F)F)n2)c(-c2cc(C)c(C#N)cn2)cn1 [Example 701, N-(5-cyanO4′-((2-(1,1-difluoroethyl)pyrimidin-4-yl)amino)-4-methyl-[2,3′-bipyridin]-6′-yl)acetamide]	≤ 10 nM	≤ 10 nM
CC(=O)Nc1cc(Nc2ccnc(C(C)(F)F)n2)c(-c2ccc(CN3C[C@H]4C[C@@H](C3)O4)cn2)cn1 [Example 702, N-(5-(((1R,5S)-6-oxa-3-azabicyclo[3.1.1]heptan-3-yl)methyl)-4′-((2-(1,1-difluoroethyl)pyrimidin-4-yl)amino)-[2,3′-bipyridin]-6′-yl)acetamide]	≤ 10 nM	≤ 10 nM
CC(=O)Nc1cc(Nc2ccnc(C(C)(F)F)n2)c(-c2ccc(CN3CCC4(COC4)C3)cn2)cn1 [Example 703, N-(5-((2-oxa-6-azaspiro[3.4]octan-6-yl)methyl)-4′-((2-(1,1-difluoroethyl)pyrimidin-4-yl)amino)-[2,3′-bipyridin]-6′-yl)acetamide]	≤ 10 nM	≤ 10 nM
CC(=O)Nc1cc(Nc2ccnc(C(C)(F)F)n2)c(-c2ccn(CC3CC3)n2)cn1 [Example 704, N-(5-(1-(cyclopropylmethyl)-1H-pyrazol-3-yl)-4-((2-(1,1-difluoroethyl)pyrimidin-4-yl)amino)pyridin-2-yl)acetamide]	≤ 10 nM	≤ 10 nM
CCCn1ccc(-c2cnc(NC(C)=O)cc2Nc2ccnc(C(C)(F)F)n2)n1 [Example 705, N-(4-((2-(1,1-difluoroethyl)pyrimidin-4-yl)amino)-5-(1-propyl-1H-pyrazol-3-yl)pyridin-2-yl)acetamide]	≤ 10 nM	≤ 10 nM
CCn1ccc(-c2cnc(NC(C)=O)cc2Nc2ccnc(C(C)(F)F)n2)n1 [Example 706, N-(4-((2-(1,1-difluoroethyl)pyrimidin-4-yl)amino)-5-(1-ethyl-1H-pyrazol-3-yl)pyridin-2-yl)acetamide]	≤ 10 nM	≤ 10 nM
CCn1ncc(-c2cnc(NC(C)=O)cc2Nc2ccnc(C(C)(F)F)n2)n1 [Example 709, N-(4-((2-(1,1-difluoroethyl)pyrimidin-4-yl)amino)-5-(2-ethyl-2H-1,2,3-triazol-4-yl)pyridin-2-yl)acetamide]	≤ 10 nM	10 to 100 nM
COCn1ncc(-c2cnc(NC(C)=O)cc2Nc2ccnc(C(C)(F)F)n2)n1 [Example 711, N-(4-((2-(1,1-difluoroethyl)pyrimidin-4-yl)amino)-5-(2-(methoxymethyl)-2H-1,2,3-triazol-4-yl)pyridin-2-yl)acetamide]	≤ 10 nM	10 to 100 nM
COc1nc(-c2cnc(NC(C)=O)cc2Nc2ccnc(C(C)(F)F)n2)cs1 [Example 712, N-(4-((2-(1,1-difluoroethyl)pyrimidin-4-yl)amino)-5-(2-methoxythiazol-4-yl)pyridin-2-yl)acetamide]	≤ 10 nM	≤ 10 nM
CCc1nnc(-c2cnc(NC(C)=O)cc2Nc2ccnc(C(C)(F)F)n2)s1 [Example 714, N-(4-((2-(1,1-difluoroethyl)pyrimidin-4-yl)amino)-5-(5-ethyl-1,3,4-thiadiazol-2-yl)pyridin-2-yl)acetamide]	≤ 10 nM	≤ 10 nM
